Reference: patent publication US20250271442A1, “Methods for Detecting Renal Disease” (IDEXX Laboratories, Inc., priority 2013, published 2025)
Values after ≈ are worked out from the molar mass of the structure shown.

Experiments:
Assay type in all cases: binding
[1] = system: rabbit anti-SDMA antibody in serum, Rabbit # 156 (SDMA-BSA immunogen); experiment: Competitive ELISA, specificity of rabbit anti-SDMA antiserum, Rabbit #156; conditions: Rabbit # 156 antiserum (1:20K); for % Cross Reactivity: IC50 of SDMA / IC50 of competitor x 100; for IC 50: competition with SDMA-HRP conjugate, absorbance 450 nm
Method: (§1) The immunization protocol for generating the anti-SDMA antibodies was carried out according to the following protocol. Six California breed rabbits were immunized with an SDMA-conjugate. Three of the six rabbits were immunized with SDMA conjugated with BSA (rabbits #155, 156 and 157) and the other three rabbits were immunized with SDMA conjugated with KLH (rabbits #152, 153 and 154) (prepared as described in Example 2). For primary immunizations, each rabbit was injected with 0.5 mg of the SDMA conjugate in 1 ml of phosphate buffered saline (PBS) mixed with 1 ml of Freund's complete adjuvant. Each rabbit received 20-30 intradermal injections on their shaved back. Each rabbit was boosted with 0.25 mg of immunogen in 1 ml PBS mixed with equal volume of Freund's incomplete adjuvant in the hind legs. The boosting shots were given each month after the primary injection. Test bleeds of 5 ml blood were taken from each rabbit 7-10 days after each boost. Production bleeds of 40 ml were taken from each rabbit after the third booster shot, when the antisera titer was greater than about 1:2000. Antiserum titer is the dilution of antiserum that generates the steepest calibration curve for the assay.
(§2) In order to assess the specificity of the antibodies obtained by the procedures described in Example 3 above, their reactivity to SDMA, ADMA, L-arginine, and/or N-methylarginine was measured in a competitive ELISA assay (Table 1).
(§3) ADMA-2HCl, SDMA-2HCl, N-methylarginine acetate (Sigma, Cat. No. M7033) or L-arginine (Sigma, Cat. No. A5006) were each dissolved in PBS to make stock solutions at 1 mg/ml. From these stock solutions, working solutions at 100 μg/ml, 10 μg/ml and 1 μg/ml were prepared in PBS.
(§4) […] After a 30 minutes incubation period at room temperature, the wells were washed 4 times with PBST (Phosphate Buffered Saline, 0.05% Tween).
(§5) 100 μl of 3,3′,5,5′-Tetramethylbenzidine (commercially available from Promega Corporation of Madison, WI) was subsequently added. Following a 30 minutes incubation period at room temperature, 100 μl of stop solution (1 N HCl) was added and the absorbance was measured at 450 nm using a BioTek ELX 808 (Winooski, VT) plate reader. The data was subjected to quantification using Softmax software (Molecular Devices, Sunnyvale, CA).
(§6) The absorbance values obtained with 0 μg/mL, 1 μg/mL, 10 μg/mL, and 100 μg/mL of ADMA, SDMA, N-methylarginine or L-arginine, respectively, were determined and plotted. The concentration of SDMA at which the absorbance value was reduced by 50% (relative to the maximum absorbance obtained at 0 μg/mL SDMA; i.e. IC50) was divided by each of the concentrations of ADMA, N-methylarginine or L-arginine, respectively, at which the absorbance value was reduced by 50% (IC50). The resulting value was multiplied by 100 to obtain the value “% cross-reactivity”.

[2] = system: rabbit anti-SDMA antibody in serum, Rabbit # 157 (SDMA-BSA immunogen); experiment: Competitive ELISA, specificity of rabbit anti-SDMA antiserum, Rabbit #157; conditions: Rabbit # 157 antiserum (1:15K); for % Cross Reactivity: IC50 of SDMA / IC50 of competitor x 100; for IC 50: competition with SDMA-HRP conjugate, absorbance 450 nm
Method: as §1, §2, §3, §4, §5, §6

[3] = system: rabbit anti-SDMA antibody in serum, Rabbit # 155 (SDMA-BSA immunogen); experiment: Competitive ELISA, specificity of rabbit anti-SDMA antiserum, Rabbit #155; conditions: Rabbit # 155 antiserum (1:3K); for % Cross Reactivity: IC50 of SDMA / IC50 of competitor x 100; for IC 50: competition with SDMA-HRP conjugate, absorbance 450 nm
Method: as §1, §2, §3
(§7) 50 μl of the SDMA-HRP conjugate (as described in Example 5 below), 50 μl of ADMA, SDMA, N-methylarginine or L-arginine (at concentrations from 1-100 μg/ml as described above), and 50 μl of rabbit anti-SDMA antibody in serum (1:3000 titer) were sequentially added to an individual well in a 96-well polystyrene microwell plate, precoated with sheep anti-rabbit IgG (commercially available from Beacon Analytical Systems Inc. of Portland, ME). After a 30 minutes incubation period at room temperature, the wells were washed 4 times with PBST (Phosphate Buffered Saline, 0.05% Tween).
as §5, §6

[4] = system: rabbit anti-SDMA antibody in serum, Rabbit # 154 (SDMA-KLH immunogen); experiment: Competitive ELISA, specificity of rabbit anti-SDMA antiserum, Rabbit #154; conditions: Rabbit # 154 antiserum (1.25K); for % Cross Reactivity: IC50 of SDMA / IC50 of competitor x 100; for IC 50: competition with SDMA-HRP conjugate, absorbance 450 nm
Method: as §1, §2, §3, §4, §5, §6

[5] = system: rabbit anti-SDMA antibody in serum, Rabbit # 152 (SDMA-KLH immunogen); experiment: Competitive ELISA, specificity of rabbit anti-SDMA antiserum, Rabbit #152; conditions: Rabbit # 152 antiserum (1:5K); for % Cross Reactivity: IC50 of SDMA / IC50 of competitor x 100; for IC 50: competition with SDMA-HRP conjugate, absorbance 450 nm
Method: as §1, §2, §3, §4, §5, §6

[6] = system: rabbit anti-SDMA antibody in serum, Rabbit # 153 (SDMA-KLH immunogen); experiment: Competitive ELISA, specificity of rabbit anti-SDMA antiserum, Rabbit #153; conditions: Rabbit # 153 antiserum (1:2.5K); for % Cross Reactivity: IC50 of SDMA / IC50 of competitor x 100; for IC 50: competition with SDMA-HRP conjugate, absorbance 450 nm
Method: as §1, §2, §3, §4, §5, §6

[7] = system: polyclonal antibody from Rabbit No. 154 (anti-SDMA); experiment: Competitive ELISA, specificity with greater stringency, polyclonal antibody from Rabbit No. 154; conditions: polyclonal antibody from Rabbit No. 154, determined with greater stringency
Method: as §7, §5, §6
In another experiment, using only polyclonal antibody from Rabbit No. 154, the specificity of the antibody was determined with greater stringency by the method described above.

| IC 50 [1] [µg/mL] | IC 50 [2] [µg/mL] | IC 50 [3] [µg/mL] | IC 50 [4] [µg/mL] | IC 50 [5] [µg/mL] | IC 50 [6] [µg/mL] | SMILES | % Cross Reactivity [1] [%] | % Cross Reactivity [2] [%] | % Cross Reactivity [3] [%] | % Cross Reactivity [4] [%] | % Cross Reactivity [5] [%] | % Cross Reactivity [6] [%] | Specificity (Cross-Reactivity) Rabbit No. 154 Cross-reactivity [7] [%] |
| --- | --- | --- | --- | --- | --- | --- | --- | --- | --- | --- | --- | --- | --- |
| >100 | >100 | >100 | >100 | >100 | >100 | CN(C)C(=N)NCCCC(N)C(=O)O (stereo not drawn) [ADMA, asymmetrical dimethylarginine] | <1 | <1 | <1 | <1 | <1 | <1 | <0.2 |
| >100 | >100 | 79 (≈ 420 µM) | >100 | >100 | >100 | CNC(=N)NCCCC(N)C(=O)O (stereo not drawn) [N-MMA, N-monomethylarginine] | <1 | <1 | <1 | <1 | <1 | <1 |  |
| 1.3 (≈ 6.43 µM) | 1.6 (≈ 7.91 µM) | 0.73 (≈ 3.61 µM) | 0.49 (≈ 2.42 µM) | 1.10 (≈ 5.44 µM) | 0.65 (≈ 3.21 µM) | C/N=C(\NC)NCCCC(N)C(=O)O (stereo not drawn) [SDMA, symmetrical dimethylarginine] | 100 | 100 | 100 | 100 | 100 | 100 | 100 |

| SMILES | IC 50 [1] [µg/mL] | IC 50 [2] [µg/mL] | IC 50 [3] [µg/mL] | IC 50 [4] [µg/mL] | IC 50 [5] [µg/mL] | IC 50 [6] [µg/mL] | % Cross Reactivity [1] [%] | % Cross Reactivity [2] [%] | % Cross Reactivity [3] [%] | % Cross Reactivity [4] [%] | % Cross Reactivity [5] [%] | % Cross Reactivity [6] [%] | Specificity (Cross-Reactivity) Rabbit No. 154 Cross-reactivity [7] [%] |
| --- | --- | --- | --- | --- | --- | --- | --- | --- | --- | --- | --- | --- | --- |
| N=C(N)NCCC[C@H](N)C(=O)O [L-Arginine, L-arginine] | >100 | >100 | >100 | >100 | >100 | >100 | <1 | <1 | <1 | <1 | <1 | <1 | <0.01 |
